Assay results as given in US8883504B2, “Cell differentiation suppressing agent, method of culturing cells using the same, culture solution, and cultured cell line” (Asahi Kasei Kabushiki Kaisha, priority 2003, dated 2014).

Test system: mouse embryonic stem cell line D3ES cell
Assay: Alkaline phosphatase staining 1
Format: cell-based
Procedure: For the D3ES cell obtained by the preparation of the mouse ES cell as described in (3) above, 3×10^2 to 1×10^3 cells per well was seeded in […] of the ES cell assay medium in a well of a 96-well cell culture dish (Falcon Corp. made, Cat. No. 3072, USA) coated previously with a 0.1% aqueous gelatin solution. A 10 μl of the differentiation inhibiting agent (A,B,C,D,E,F: A to D were ASINEX Corp. (Russia) made and E to F were purchased from PHARMEKS Corp. (Russia)) of the present invention or ESGRO, which was dissolved in dimethylsulfoxide (DMSO), or water, or the mixture, was added to each well to make 0.4 to 40 μg/mL, and culturing was carried out at 37° C. in 5% CO2 incubator for 7 days. DMSO added to the medium was adjusted to make a final concentration of 0.1% or lower. On the other hand, to a control well was added only DMSO to make the final concentration of 0.1%.
The ES cells were stained by using an alkaline phosphatase kit (SIGMA Diagnostic Corp. made, Cat. No. 86-R). […]

CC(=O)c1ccc(/N=N/C(C(N)=O)=C2/NC(C)(C)Cc3ccccc32)cc1 [compound B, 2-(4-acetyl-phenylazo)-2-(3,3-dimethyl-3,4-dihydro-2H-isoquinoline-1-ylidene)-acetamide]
undifferentiated colony formation compared with ES cells cultured in the presence of ESGRO (positive control) (compound 4 μg/mL, ESGRO 1000 units/mL): form an undifferentiated colony equal to that of the ES cells cultured in the presence of ESGRO | alkaline phosphatase staining in comparison with ES cells cultured in the absence of ESGRO (compound B 4 μg/mL, FIG. 4): stained significantly more densely
